Data from patent US4356167A, “Liposome drug delivery systems” (Sandoz, Inc., priority 1981, dated 1982).
Values joined by “and” are separate entries in the source; they are usually repeats but may differ in a detail not shown here. Equal entries are not always repeated.

System: blood glucose
Assay: Blood glucose levels in mice after oral or i.m. dosing of insulin liposomes (Example 2)
Assay type: in vivo
Settings: 10μ/kg
Description: Insulin concentration of the liposomes was 11.69%. Suspensions of the liposome compositions A and B were given orally to mice at concentrations of A-50 U/0.1 ml/10 gms. of body weight; and B-25 U/0.1 ml/10 gms of body weight. A control group received 0.5% carboxymethyl cellulose concurrently.
Composition A was diluted 1:10 for injection i.m. as a control.
After two and four hours the animals were sacrificed by anesthetizing with 85 mg/kg of sodium hexobarbital i.p. and collecting blood via cardiac puncture. The collected blood was placed in an Auto Analyzer Cup containing 0.025 cc. of heparin 1000 units/ml. The blood samples were capped, shaken, and kept in an ice bucket. Glucose was determined by the Auto Analyzer potassium ferriccyanide method No. N-2b.
Carboxymethyl cellulose given either by p.o. or i.m. route has the same effect on blood glucose. Therefore, the test materials whether given p.o. or i.m. can be related to the carboxymethyl cellulose control.

For “Bovine Pancreatic Insulin: Bovine pancreatic insulin, Sigma Chemical”, the “% Δ blood glucose 2 Hrs. Post (down arrow, decrease vs control)” value (2 hrs) was 82%, the “Blood glucose levels 2 Hrs. Post, individual animals” value (2 hrs) was 14 MG/100 ml and 12 MG/100 ml and 16 MG/100 ml and the “Blood glucose levels 2 Hrs. Post, mean” value (2 hrs) was 14.0 ± 8 MG/100 ml. The “% Δ blood glucose 4 Hrs. Post (down arrow, decrease vs control)” value (4 hrs) was 75%, the “Blood glucose levels 4 Hrs. Post, individual animals” value (4 hrs) was 37 MG/100 ml and 10 MG/100 ml and 27 MG/100 ml and 31 MG/100 ml and the “Blood glucose levels 4 Hrs. Post, mean” value (4 hrs) was 26.3 MG/100 ml.
